Values of other authors as cited in patent publication US20090081697A1, “Methods of growing crystals of free and antibiotic complexed large ribosomal subunits, and methods of rationally designing or identifying antibiotics using structure coordinate data derived from such crystals” (Yeda Research and Development Co. Ltd., priority 2001, published 2009).

Key:
[1] = relative to erythromycin
ribosomes [2] = details: compared with erythromycin; Hansen et al. 1999
ribosomes [3] = details: Tenson et al. 1996

Row | Compound | acid stability [1] | further results
1 | CC[C@H]1OC(=O)[C@H](C)[C@@H](O[C@H]2C[C@@](C)(OC)[C@@H](O)[C@H](C)O2)[C@H](C)[C@@H](O[C@@H]2O[C@H](C)C[C@H](N(C)C)[C@H]2O)[C@](C)(O)C[C@@H](C)/C(=N\OCOCCOC)[C@H](C)[C@@H](O)[C@]1(C)O [roxithromycin] | increased acid stability relative to erythromycin | –
2 | CC[C@H]1OC(=O)[C@H](C)[C@@H](O[C@H]2C[C@@](C)(OC)[C@@H](O)[C@H](C)O2)[C@H](C)[C@@H](O[C@@H]2O[C@H](C)C[C@H](N(C)C)[C@H]2O)[C@](C)(OC)C[C@@H](C)C(=O)[C@H](C)[C@@H](O)[C@]1(C)O [clarithromycin] | increased acid stability relative to erythromycin | –
3 | CC[C@H]1OC(=O)[C@H](C)C(=O)[C@H](C)[C@@H](O[C@@H]2O[C@H](C)C[C@H](N(C)C)[C@H]2O)[C@](C)(OC)C[C@@H](C)C(=O)[C@H](C)[C@@H](O)[C@]1(C)O [RU56006] | – | Kd (ribosomes [2]): of the same order of magnitude as that of erythromycin
4 | CC[C@H]1OC(=O)[C@H](C)[C@@H](O[C@H]2C[C@@](C)(OC)[C@@H](O)[C@H](C)O2)[C@H](C)[C@@H](O[C@@H]2O[C@H](C)C[C@H](N(C)C)[C@H]2O)[C@](C)(O)C[C@@H](C)C(=O)[C@H](C)[C@@H](O)[C@]1(C)O [erythromycin] | – | length of peptides produced by erythromycin-bound ribosomes (ribosomes [3]): up to 8 residues
